Test results taken from ChEMBL document CHEMBL3638544, “Phenalkylamine derivatives, pharmaceutical compositions containing them, and their use in therapy” (2015).

Molecular target: T1, Sodium- and chloride-dependent glycine transporter 1 (Homo sapiens, UniProt P48067)
T1 sequence (P48067 whole entry): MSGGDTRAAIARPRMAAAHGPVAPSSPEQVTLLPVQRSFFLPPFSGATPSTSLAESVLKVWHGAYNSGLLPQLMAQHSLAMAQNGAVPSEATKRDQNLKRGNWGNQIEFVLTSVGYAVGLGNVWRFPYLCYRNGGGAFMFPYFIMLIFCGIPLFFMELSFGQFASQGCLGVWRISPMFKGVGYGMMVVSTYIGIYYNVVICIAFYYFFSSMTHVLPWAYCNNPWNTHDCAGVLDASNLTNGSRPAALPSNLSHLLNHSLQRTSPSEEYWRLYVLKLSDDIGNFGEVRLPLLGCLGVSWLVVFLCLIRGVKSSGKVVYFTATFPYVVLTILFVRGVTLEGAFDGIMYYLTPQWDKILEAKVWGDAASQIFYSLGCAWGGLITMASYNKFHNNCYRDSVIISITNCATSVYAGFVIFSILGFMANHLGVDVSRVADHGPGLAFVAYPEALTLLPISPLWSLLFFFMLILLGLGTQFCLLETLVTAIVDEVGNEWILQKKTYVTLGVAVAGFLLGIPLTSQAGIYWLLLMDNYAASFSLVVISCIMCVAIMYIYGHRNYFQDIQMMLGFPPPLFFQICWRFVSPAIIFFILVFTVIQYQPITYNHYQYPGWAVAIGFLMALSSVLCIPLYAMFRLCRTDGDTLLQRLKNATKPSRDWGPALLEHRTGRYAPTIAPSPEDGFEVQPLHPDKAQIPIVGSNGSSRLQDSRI
Test: Radioligand Binding Assay: Radioligand binding to human GlyT1c transporter-expressing membranes was determined as described in Mezler et al., Molecular Pharmacology 74:1705-1715, 2008.

Ki: < 10 µM
Compound: NCC(Cc1ccccc1)c1ccc2c(c1)CN(S(=O)(=O)CC1CC1)CC2 (stereo unspecified)
